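In this assay, cells in 96-well plates receive the compound at five concentrations for 48 hours. Endpoints are linearly interpolated between the surrounding concentrations. TGI: concentration producing complete growth inhibition.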
Experiments:
Assay in all cases: NCI anticancer screen, dose series, 48 h
IGROV1 ovarian = system: IGROV1 ovarian
SF-268 CNS = system: SF-268 CNS
PC-3 prostate = system: PC-3 prostate
CAKI-1 renal = system: CAKI-1 renal
RPMI-8226 leukemia = system: RPMI-8226 leukemia
NCI-H522 lung = system: NCI-H522 lung
HT29 colon = system: HT29 colon
K-562 leukemia = system: K-562 leukemia
HS 578T breast = system: HS 578T breast
SK-MEL-5 melanoma = system: SK-MEL-5 melanoma
LOX IMVI melanoma = system: LOX IMVI melanoma
UACC-62 melanoma = system: UACC-62 melanoma
SK-OV-3 ovarian = system: SK-OV-3 ovarian
MDA-MB-231 breast = system: MDA-MB-231 breast
OVCAR-8 ovarian = system: OVCAR-8 ovarian
KM12 colon = system: KM12 colon
786-0 renal = system: 786-0 renal
HCT-15 colon = system: HCT-15 colon
SNB-75 CNS = system: SNB-75 CNS
MDA-MB-435 = system: MDA-MB-435
U251 CNS = system: U251 CNS
SK-MEL-2 melanoma = system: SK-MEL-2 melanoma
CCRF-CEM leukemia = system: CCRF-CEM leukemia
NCI-H460 lung = system: NCI-H460 lung
SNB-19 CNS = system: SNB-19 CNS
NCI-H226 lung = system: NCI-H226 lung
OVCAR-3 ovarian = system: OVCAR-3 ovarian
BT-549 breast = system: BT-549 breast
NCI/ADR-RES ovarian = system: NCI/ADR-RES ovarian
SF-295 CNS = system: SF-295 CNS
SW-620 colon = system: SW-620 colon
MDA-N = system: MDA-N
MOLT-4 leukemia = system: MOLT-4 leukemia
M14 melanoma = system: M14 melanoma
MCF7 breast = system: MCF7 breast
RXF 393 renal = system: RXF 393 renal
ACHN renal = system: ACHN renal
HCT-116 colon = system: HCT-116 colon
NCI-H23 lung = system: NCI-H23 lung
MALME-3M melanoma = system: MALME-3M melanoma
SF-539 CNS = system: SF-539 CNS
SR leukemia = system: SR leukemia
HOP-62 NSCLC = system: HOP-62 NSCLC
EKVX NSCLC = system: EKVX NSCLC
TK-10 renal = system: TK-10 renal
A498 renal = system: A498 renal
T-47D breast = system: T-47D breast
OVCAR-4 ovarian = system: OVCAR-4 ovarian
OVCAR-5 ovarian = system: OVCAR-5 ovarian
UACC-257 melanoma = system: UACC-257 melanoma
A549 NSCLC = system: A549 NSCLC
COLO 205 colon = system: COLO 205 colon
HOP-92 NSCLC = system: HOP-92 NSCLC
UO-31 renal = system: UO-31 renal

Molecule `COc1ccc2c(ccc3c(COC(=O)NC(C)C)c(COC(=O)NC(C)C)n(C)c32)c1` has a TGI (IGROV1 ovarian) of 26 µM, a TGI (SF-268 CNS) of 29.7 µM and a TGI (PC-3 prostate) of 24.3 µM. The TGI (CAKI-1 renal) was 8.56 µM, the TGI (RPMI-8226 leukemia) was > 100 µM and the TGI (NCI-H522 lung) was 12.8 µM. The TGI (HT29 colon) was 26.5 µM, the TGI (K-562 leukemia) was > 100 µM and the TGI (HS 578T breast) was 38.2 µM. The TGI (SK-MEL-5 melanoma) was 28.4 µM, the TGI (LOX IMVI melanoma) was 19.6 µM and the TGI (UACC-62 melanoma) was 18.4 µM. It also gave a TGI (SK-OV-3 ovarian) of 32.5 µM, a TGI (MDA-MB-231 breast) of 34.2 µM and a TGI (OVCAR-8 ovarian) of 34.2 µM. For the same molecule, the TGI (KM12 colon) was 25.4 µM, the TGI (786-0 renal) was 20.8 µM and the TGI (HCT-15 colon) was 28.9 µM. For the same molecule, the TGI (SNB-75 CNS) was 15.8 µM, the TGI (MDA-MB-435) was 44.1 µM and the TGI (U251 CNS) was 28.5 µM. The TGI (SK-MEL-2 melanoma) was 32.5 µM, the TGI (CCRF-CEM leukemia) was > 100 µM and the TGI (NCI-H460 lung) was 2040 nM. For the same molecule, the TGI (SNB-19 CNS) was > 100 µM, the TGI (NCI-H226 lung) was 23.2 µM and the TGI (OVCAR-3 ovarian) was 26.8 µM. For the same molecule, the TGI (BT-549 breast) was 29.4 µM, the TGI (NCI/ADR-RES ovarian) was 22.9 µM and the TGI (SF-295 CNS) was 46.2 µM. The TGI (SW-620 colon) was 32.8 µM, the TGI (MDA-N) was 24.7 µM and the TGI (MOLT-4 leukemia) was > 100 µM. It also gave a TGI (M14 melanoma) of 22.1 µM, a TGI (MCF7 breast) of 93.5 µM and a TGI (RXF 393 renal) of 22.2 µM. The TGI (ACHN renal) was 7.13 µM, the TGI (HCT-116 colon) was 17.4 µM and the TGI (NCI-H23 lung) was 16 µM. For the same molecule, the TGI (MALME-3M melanoma) was 12.2 µM, the TGI (SF-539 CNS) was 20.9 µM and the TGI (SR leukemia) was > 100 µM. It also gave a TGI (HOP-62 NSCLC) of 20.9 µM, a TGI (EKVX NSCLC) of 44.8 µM and a TGI (TK-10 renal) of 47.8 µM. For the same molecule, the TGI (A498 renal) was 21 µM, the TGI (T-47D breast) was 82.6 µM and the TGI (OVCAR-4 ovarian) was 28 µM. The TGI (OVCAR-5 ovarian) was 30.8 µM, the TGI (UACC-257 melanoma) was 27.1 µM and the TGI (A549 NSCLC) was 55.2 µM. The TGI (COLO 205 colon) was 22.6 µM, the TGI (HOP-92 NSCLC) was 27.2 µM and the TGI (UO-31 renal) was 28.9 µM.

From PubChem BioAssay (NCI)
